Values joined by “and” are separate entries in the source; they are usually repeats but may differ in a detail not shown here. Identical values can stand only once. Like-named read-outs stand apart in the source and are kept apart here. Marks after values point to notes of the source that are not given here.
Tests used:
[1] = tested on: H1N1 virus (A/Mississippi/3/2001); type: in vivo
[2] = tested on: H1N1pdm09 virus (A/Perth/265/2009); type: in vivo
[3] = tested on: H3N2 virus (A/Fukui/20/2004); type: in vivo
[4] = tested on: B virus (B/Minnesota/23/2015); type: in vivo
H1N1pdm09 virus = type: in vivo
[5] = tested on: nine different influenza viruses; test: animal or person; type: in vivo; details: Mustela putorius, estimated from non-linear regression model, ferrets
[6] = tested on: influenza NA protein (nine different influenza viruses); test: Fluorometric NA inhibition assay, summary over viruses
[7] = B, OST dosed ferrets, maximum loss from baseline

CCOC(=O)C1=C[C@@H](OC(CC)CC)[C@H](NC(C)=O)[C@@H](N)C1 [OST, oseltamivir]
Total Score (clinical signs) ([1]; H1N1, OST dosed ferrets): 3 | Temperature clinical score ([1]; H1N1, OST dosed ferrets, maximum increase from baseline): 1 (1.1–1.5) | Activity loss clinical score ([1]; H1N1, OST dosed ferrets, maximum loss from baseline): 1 (21–40) | Nasal inflammation Cell score ([1]; H1N1, OST dosed ferrets, nasal wash, maximum cell count): 1 (1 to 2 x10^6) | Nasal inflammation Protein score ([1]; H1N1, OST dosed ferrets, nasal wash, maximum protein concentration): 0 (<500) | difference in %AUC for weight (OST vs placebo) ([1]; H1N1, ferrets): 2.5% | Duration of Shedding ([1]; H1N1, ferrets, OST 5 mg/kg twice daily): 0.0 ± 0.0 days | AUC (total area under the viral shedding curve, raw data) ([1]; H1N1, ferrets, OST 5 mg/kg twice daily, mean ± SD): 0.0 ± 0.0 | difference in %AUC for cell count (OST vs placebo) ([1]; H1N1, ferrets, nasal wash): 67% | difference in %AUC for protein concentration (OST vs placebo) ([1]; H1N1, ferrets, nasal wash): 74% | % Ferrets Infected ([1]; in vivo): 0 (0/4) % | Weight loss clinical score ([1]; in vivo): 0 | activity levels of OST dosed ferrets ([1]; in vivo): fluctuated around pre-exposure baseline levels | ferrets infected (number infected/number exposed) ([1]; in vivo): 0/4 | Total Score (clinical signs) ([2]; H1N1pdm09, OST dosed ferrets): 6 | Temperature clinical score ([2]; H1N1pdm09, OST dosed ferrets, maximum increase from baseline): 2 (1.5–2.0) | Activity loss clinical score ([2]; H1N1pdm09, OST dosed ferrets, maximum loss from baseline): 1 (21–40) | Nasal inflammation Cell score ([2]; H1N1pdm09, OST dosed ferrets, nasal wash, maximum cell count): 1 (1 to 2 x10^6) | Nasal inflammation Protein score ([2]; H1N1pdm09, OST dosed ferrets, nasal wash, maximum protein concentration): 2 (1001–1500) | difference in %AUC for activity levels (OST vs placebo) ([2]; H1N1pdm09, ferrets): 53% | Duration of Shedding ([2]; H1N1pdm09, ferrets, OST 5 mg/kg twice daily): 3.5 ± 0.7 days | AUC (total area under the viral shedding curve, raw data) ([2]; H1N1pdm09, ferrets, OST 5 mg/kg twice daily, mean ± SD): 9.3 ± 12.7 | difference in %AUC for protein concentration (OST vs placebo) ([2]; H1N1pdm09, ferrets, nasal wash): 56% | % Ferrets Infected ([2]; in vivo): 50% and 50 (2/4) % | Peak Viral Titre ([2]; in vivo): 4.2 ± 0.9 Log10 TCID50/ml | Weight loss clinical score ([2]; in vivo): 0 | difference in %AUC for weight change (OST vs placebo) ([2]; in vivo): 4.9% | Total Score (clinical signs) ([3]; H3N2, OST dosed ferrets): 1 | Temperature clinical score ([3]; H3N2, OST dosed ferrets, maximum increase from baseline): 0 (<1) | Activity loss clinical score ([3]; H3N2, OST dosed ferrets, maximum loss from baseline): 1 (21–40) | Nasal inflammation Cell score ([3]; H3N2, OST dosed ferrets, nasal wash, maximum cell count): 0 (<1X10^6) | Nasal inflammation Protein score ([3]; H3N2, OST dosed ferrets, nasal wash, maximum protein concentration): 0 (<500) | Duration of Shedding ([3]; H3N2, ferrets, OST 5 mg/kg twice daily): 2.0 ± 0.8 days | AUC (total area under the viral shedding curve, raw data) ([3]; H3N2, ferrets, OST 5 mg/kg twice daily, mean ± SD): 3.0 ± 3.7 | % Ferrets Infected ([3]; in vivo): 50 (4/8) % | Peak Viral Titre ([3]; in vivo): 3.0 ± 0.8 Log10 TCID50/ml | Weight loss clinical score ([3]; in vivo): 0 | ferrets prevented from shedding infectious virus ([3]; in vivo): 50% | reduction of %AUC for cell counts (OST vs placebo) ([3]; in vivo): 69.2% | reduction of %AUC for protein concentration (OST vs placebo) ([3]; in vivo): 52.4% | Total Score (clinical signs) ([4]; B, OST dosed ferrets): 3 | Temperature clinical score ([4]; B, OST dosed ferrets, maximum increase from baseline): 0 (<1) | Activity loss clinical score [4, 7]: 1 (21–40) | Weight loss clinical score [4, 7]: 0 | Nasal inflammation Cell score ([4]; B, OST dosed ferrets, nasal wash, maximum cell count): 1 (1 to 2 x10^6) | Nasal inflammation Protein score ([4]; B, OST dosed ferrets, nasal wash, maximum protein concentration): 1 (500–1000) | % Ferrets Infected ([4]; B, ferrets, OST 5 mg/kg orally twice daily): 100 (4/4) % | Duration of Shedding ([4]; B, ferrets, OST 5 mg/kg twice daily): 5.5 ± 0.6 days | AUC (total area under the viral shedding curve, raw data) ([4]; B, ferrets, OST 5 mg/kg twice daily, mean ± SD): 12.9 ± 1.9 | Peak Viral Titre ([4]; in vivo): 3.7 ± 0.4 Log10 TCID50/ml | body weight or temperature, OST- vs placebo-treated animals (H1N1pdm09 virus; H1N1pdm09, macaques, OST 3 mg/kg orally): no significant differences | viral titre lower in tracheal lavages of OST dosed macaques compared to placebo (H1N1pdm09 virus; cynomolgus monkey, in vivo): 1.9 logs | viral titres in nasal wash and tracheal lavages, OST vs placebo (H1N1pdm09 virus; cynomolgus monkey, in vivo): not significantly different | IC50 ([5]; read-out: IC50 corresponding to a 50% reduction in OST efficacy against viral shedding): 0.0146 µM | IC50 ([5]; read-out: IC50 corresponding to a 90% loss in oseltamivir efficacy against viral shedding): 0.0682 µM | IC50 ([6]; read-out: OST IC50 values, range over nine different influenza viruses, nine viruses of the ferret study): 0.0002 to 0.414 µM | IC50 ([6]; read-out: normal IC50 values of wild-type influenza A viruses, wild-type influenza A viruses): ~0.001 µM

— article PMC7326275 (PLoS Pathogens, 2020)
